Literature values as cited in patent US20260226019A1, “NEGATIVE ALLOSTERIC MODULATORS OF METABOTROPIC GLUTAMATE RECEPTOR 2” (Vanderbilt University, priority 2023, published 2026).
Where two headings read alike, the source gives them in different places.

Columns and labels:
[1] = tested on: mGlu2/3 receptor; details: rat forced swim test, normal animals; cited from earlier work
[2] = tested on: mGlu2/3 receptor; details: mouse tail-suspension test, normal animals; cited from earlier work
[3] = tested on: central mGlu2 and mGlu3 receptors; details: target-specific manner; cited from earlier work
[4] = C57B16/J mice, FST; cited from earlier work
[5] = cited from earlier work; for activity in the tail suspension test: Helpless (H) mice; for antidepressant effect: helpless mice
[6] = tested on: group II mGlu receptors; details: treated mice; cited from earlier work
[7] = tested on: mGlu2; details: cited from earlier work
[8] = tested on: group II mGlu receptors (mGlu2 and mGlu3); details: CFS model; cited from earlier work
[9] = dominant-submissive test; cited from earlier work
[10] = tested on: mGlu2/3 receptor; details: learned helplessness test; treatment for 7 days; cited from earlier work
[11] = olfactory bulbectomized rats; repeated administration for 14 days; cited from earlier work
[12] = social isolation reared mice; cited from earlier work

Structure (SMILES) | antidepressant-like effects [1] | antidepressant-like effects [2] | hypolocomotor effect of mGlu2/3 agonist (LY379268) [3] | immobility time [4] | activity in the tail suspension test [5] | marble-burying behavior [6] | freezing behavior [8] | further results
N[C@](CC1c2ccccc2Oc2ccccc21)(C(=O)O)[C@H]1C[C@@H]1C(=O)O [LY341495] | Antidepressant-like effects | Antidepressant-like effects | achieved the same result | dose-dependently reduced | active | significantly reduce | – | antidepressant effect ([5]; acute administration): potent antidepressant effect; LY566332 amplification of AP-induced neurodegeneration [7]: prevented
CCS(=O)(=O)N(Cc1cccnc1)c1cccc(-c2ccc(C#N)cc2)c1 [LY566332] | – | – | – | – | – | – | – | AP-induced neurodegeneration [7]: amplified
Cc1cc(-c2cccc(C3=Nc4cc(C)c(C(F)(F)F)cc4NC(=O)C3)c2)cc(C)n1 [Compound R04491533] | – | – | reversed | dose-dependently reduced | active | – | – | –
CN1C(=O)CN=C(c2ccccc2)c2cc(Cl)ccc21 [diazepam] | – | – | – | – | – | – | significantly decreased | –
CNCCC(Oc1ccc(C(F)(F)F)cc1)c1ccccc1 (stereo not drawn) [fluoxetine] | – | – | – | – | – | – | – | antidepressant effect ([5]; chronic (21 days) treatment): full antidepressant effect; onset of effects [9]: after two weeks
N[C@]1(C(=O)O)[C@H]2[C@@H](C[C@H]1OCc1ccc(Cl)c(Cl)c1)[C@]2(F)C(=O)O [MGS0039] | Antidepressant-like effects | Antidepressant-like effects | – | – | – | reduced marble-burying behavior in a significant and dose dependent manner | significantly decreased | number of escape failures [10]: significantly reduced; hyperactivity in the open field test [11]: attenuated; learning deficit in the passive avoidance test [11]: attenuated; increased immobility in the FST [12]: reversed; spontaneous locomotor activity [6]: no significant change
